The data set is described as follows: refractive index (Na D-line) (dimensionless); wn = mass fraction of the nth substance listed. As to conditions: 298.15 K, 101 kPa, Liquid, Standard Abbe refractometry.

Where “and” joins values, the source holds several entries; their conditions need not be identical. Equal entries are not always repeated. ± gives the expanded uncertainty stated by the source.

In the case of `CC(C)(C)O` [2-methylpropan-2-ol] + O, the refractive index (w1 = 0.0971) was determined as 1.3426 ± 0.0008.

`CCC(C)O` (stereo unspecified) [butan-2-ol] + O: the refractive index (w1 = 0.0982) was found to be 1.3431 ± 0.0008.

As for `O=C([O-])[C@H](O)[C@@H](O)C(=O)[O-].[Na+].[Na+]` [disodium L-tartrate] + O, the refractive index is 1.3393 ± 0.0008 (w1 = 0.0401); 1.3404 ± 0.0008 (w1 = 0.0452); 1.34 ± 0.0008 and 1.3403 ± 0.0008 (w1 = 0.0472).

For `CCCO` [propan-1-ol] + O, where the note is “w1 = 0.0949”, the refractive index came out at 1.3413 ± 0.0008.

The term refractive index denotes a measure of how strongly the sample bends light.
